Laboratory results from patent publication US11529341B2, “Bicyclic compounds as inhibitors of PD1/PD-L1 interaction/activation” (JUBILANT PRODEL LLC, priority 2018, dated 2022).

Molecular target: T1, PD-1/PD-L1 interaction (Homo sapiens, UniProt Q9NZQ7)
T1 construct: Tag1 (undisclosed kit tag); purchased CisBio 63ADK000CPAPEG
Assay: PD-1/PD-L1 Homogenous Time-Resolved Fluorescence (HTRF) binding assay (CisBio kit)
Conditions: Biochemical PD1/PD-L1 inhibition
Method: PD-L1 Enzyme Assay: Homogenous Time-Resolved Fluorescence (HTRF) Binding Assay
All binding studies were performed using PD-1/PD-L1 Binding Assay Kit from CisBio (Catalog #63ADK000CPAPEG), according to the manufacturer's protocol. The interaction between Tag1-PD-1 and […] was detected by anti-Tag1-Eu^3+ (HTRF donor) and anti-Tag2-XL665 (HTRF acceptor). When the donor and acceptor antibodies were brought to close proximity due to PD-1 and PD-L1 binding, excitation of the donor antibody triggered fluorescent resonance energy transfer (FRET) towards the acceptor antibody, which in turn emitted specifically at 665 nm. This specific signal is positively proportional to PD-1/PD-L1 interaction. The compounds blocking PD-1/PD-L1 interaction will cause a reduction in HTRF signal. The necessary reagents were mixed in the following order: 2 μl compounds (or diluents buffer), 4 μl PD-L1 protein, 4 μl PD-1 protein. After an incubation of 15 minutes, 5 μl of anti-Tag1-Eu^3+ and 5 μl of anti-Tag2-XL665 were added. The plate was sealed and incubated at room temperature for 1 h. The fluorescence emission was read at two different wavelengths (665 nm and 620 nm) on a BMG PheraStar® multi-plate reader. Results were calculated from the 665 nm and 620 nm fluorescence signal and expressed in HTRF ratio=(665 nm/620 nm)×10^4.

T1 sequence (Q9NZQ7 19-238 limits assumed): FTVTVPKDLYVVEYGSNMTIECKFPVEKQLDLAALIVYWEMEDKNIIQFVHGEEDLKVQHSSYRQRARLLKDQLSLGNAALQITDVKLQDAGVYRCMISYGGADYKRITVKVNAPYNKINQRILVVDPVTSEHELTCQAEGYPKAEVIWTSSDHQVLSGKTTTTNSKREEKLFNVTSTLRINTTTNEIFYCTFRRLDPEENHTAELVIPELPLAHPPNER

Row | IC50 [nM] | Compound
1 | < 100 | Cc1c(COc2cc(OCc3cccc(C#N)c3)c(CN3CCC[C@@H]4C[C@@]43C(=O)O)c3c2CCC3)cccc1-c1ccccc1 (racemic) [Compound 43, rac-(1R,6S)-2-((5-((3-cyanobenzyl)oxy)-7-((2-methyl-[1,1′-biphenyl]-3-yl)methoxy)-2,3-dihydro-1H-inden-4-yl)methyl)-2-azabicyclo[4.1.0]heptane-1-carboxylic acid]
2 | 100 to 500 | COc1cc(OCc2cccc(-c3ccccc3)c2C)c2c(c1CN1CCC[C@H]3C[C@]31C(=O)O)CCC2 (racemic) [Compound 45, (1R,6S)-2-((5-methoxy-7-((2-methyl-[1,1′-biphenyl]-3-yl)methoxy)-2,3-dihydro-1H-inden-4-yl)methyl)-2-azabicyclo[4.1.0]heptane-1-carboxylic acid]
3 | < 100 | Cc1c(COc2cc(OCc3cncc(C#N)c3)c(CN3CCC[C@@H]4C[C@@]43C(=O)O)c3c2CCC3)cccc1-c1ccccc1 (racemic) [Compound 51, rac-(1R,6S)-2-((5-((5-cyanopyridin-3-yl)methoxy)-7-((2-methyl-[1,1′-biphenyl]-3-yl)methoxy)-2,3-dihydro-1H-inden-4-yl)methyl)-2-azabicyclo[4.1.0]heptane-1-carboxylic acid]
4 | < 100 | COc1cc(OCc2cccc(-c3ccccc3)c2C#N)c2c(c1CN1CCC[C@@H]3C[C@@]31C(=O)O)CCC2 (racemic) [Compound 62, rac-(1R,6S)-2-((7-((2-cyano-[1,1′-biphenyl]-3-yl)methoxy)-5-methoxy-2,3-dihydro-1H-inden-4-yl)methyl)-2-azabicyclo[4.1.0]heptane-1-carboxylic acid]
5 | < 100 | N#Cc1cncc(COc2cc(OCc3cccc(-c4ccccc4)c3C#N)c3c(c2CN2CCC[C@@H]4C[C@@]42C(=O)O)CCC3)c1 (racemic) [Compound 72, rac-(1R,6S)-2-((7-((2-cyano-[1,1′-biphenyl]-3-yl)methoxy)-5-((5-cyanopyridin-3-yl)methoxy)-2,3-dihydro-1H-inden-4-yl)methyl)-2-azabicyclo[4.1.0]heptane-1-carboxylic acid]
6 | 100 to 500 | Cc1c(COc2ccc(CN3CCCC[C@H]3C(=O)O)c3c2CCC3)cccc1-c1ccccc1 [Compound 1, (S)-1-((7-((2-methyl-[1,1′-biphenyl]-3-yl)methoxy)-2,3-dihydro-1H-inden-4-yl)methyl) piperidine-2-carboxylic acid]
7 | 100 to 500 | COc1cc(OCc2cccc(-c3ccccc3)c2C)c2c(c1CNCCNC(C)=O)CCC2 [Compound 2, N-(2-(((5-methoxy-7-((2-methyl-[1,1′-biphenyl]-3-yl)methoxy)-2,3-dihydro-1H-inden-4-yl)methyl)amino)ethyl)acetamide]
8 | > 500 | Cc1c(COc2ccc(CN3CCCC[C@H]3C(=O)O)c3c2CCC3)cccc1-c1cccc2c1ccn2CCCN1CCC(F)(F)C1 [Compound 3, (S)-1-((7-((3-(1-(3-(3,3-difluoropyrrolidin-1-yl)propyl)-1H-indol-4-yl)-2-methylbenzyl)oxy)-2,3-dihydro-1H-inden-4-yl)methyl)piperidine-2-carboxylic acid]
9 | 100 to 500 | Cc1cc(CN2CCCC[C@H]2C(=O)O)c2c(c1OCc1cccc(-c3ccccc3)c1C)CCC2 [Compound 4, (S)-1-((6-methyl-7-((2-methyl-[1,1′-biphenyl]-3-yl)methoxy)-2,3-dihydro-1H-inden-4-yl)methyl)piperidine-2-carboxylic acid]
10 | 100 to 500 | Cc1c(COc2c(Cl)cc(CN3CCCC[C@H]3C(=O)O)c3c2CCC3)cccc1-c1ccccc1 [Compound 5, (S)-1-((6-chloro-7-((2-methyl-[1,1′-biphenyl]-3-yl)methoxy)-2,3-dihydro-1H-inden-4-yl)methyl)piperidine-2-carboxylic acid]
11 | > 500 | COC(=O)c1cc(CNCCNC(C)=O)c2c(c1OCc1cccc(-c3ccccc3)c1C)CCC2 [Compound 6, Methyl 7-(((2-acetamidoethyl)amino)methyl)-4-((2-methyl-[1,1′-biphenyl]-3-yl)methoxy)-2,3-dihydro-1H-indene-5-carboxylate]
12 | > 500 | COc1cc(OCc2cccc(-c3cccc(OCCCN4CCC(F)(F)C4)c3C)c2C)c2c(c1CN1CCCC[C@H]1C(=O)O)CCC2 [Compound 7, (S)-1-((7-((3′-(3-(3,3-difluoropyrrolidin-1-yl)propoxy)-2,2′-dimethyl-[1,1′-biphenyl]-3-yl)methoxy)-5-methoxy-2,3-dihydro-1H-inden-4-yl)methyl)piperidine-2-carboxylic acid]
13 | < 100 | Cc1c(COc2cc(OCc3cccc(C#N)c3)c(CN3CCCC[C@H]3C(=O)O)c3c2CCC3)cccc1-c1ccccc1 [Compound 8, (S)-1-((5-((3-cyanobenzyl)oxy)-7-((2-methyl-[1,1′-biphenyl]-3-yl)methoxy)-2,3-dihydro-1H-inden-4-yl)methyl)piperidine-2-carboxylic acid]
14 | < 100 | Cc1c(COc2cc(OCc3cncc(F)c3)c(CN3CCCC[C@H]3C(=O)O)c3c2CCC3)cccc1-c1ccccc1 [Compound 9, (S)-1-((5-((5-fluoropyridin-3-yl)methoxy)-7-((2-methyl-[1,1′-biphenyl]-3-yl)methoxy)-2,3-dihydro-1H-inden-4-yl)methyl)piperidine-2-carboxylic acid]
15 | < 100 | CC(=O)NCCNCc1c(OCc2cncc(F)c2)cc(OCc2cccc(-c3ccccc3)c2C)c2c1CCC2 [Compound 10, N-(2-(((5-((5-fluoropyridin-3-yl)methoxy)-7-((2-methyl-[1,1′-biphenyl]-3-yl)methoxy)-2,3-dihydro-1H-inden-4-yl)methyl)amino)ethyl)acetamide]
16 | < 100 | COc1cc(OCc2cccc(-c3ccccc3)c2C)c2c(c1CN1CC3(CC3)C[C@H]1C(=O)O)CCC2 [Compound 11, (S)-5-((5-methoxy-7-((2-methyl-[1,1′-biphenyl]-3-yl)methoxy)-2,3-dihydro-1H-inden-4-yl)methyl)-5-azaspiro[2.4]heptane-6-carboxylic acid]
17 | < 100 | Cc1c(COc2cc(OCC(F)(F)F)c(CN3CCCC[C@H]3C(=O)O)c3c2CCC3)cccc1-c1ccccc1 [Compound 12, (S)-1-((7-((2-methyl-[1,1′-biphenyl]-3-yl)methoxy)-5-(2,2,2-trifluoroethoxy)-2,3-dihydro-1H-inden-4-yl)methyl)piperidine-2-carboxylic acid]
18 | < 100 | CC(=O)N(C)CCNCc1c(OCc2cccc(C#N)c2)cc(OCc2cccc(-c3ccccc3)c2C)c2c1CCC2 [Compound 13, N-(2-(((5-((3-cyanobenzyl)oxy)-7-((2-methyl-[1,1′-biphenyl]-3-yl)methoxy)-2,3-dihydro-1H-inden-4-yl)methyl)amino)ethyl)-N-methylacetamide]
19 | > 500 | CC(=O)NCCNCc1c(OC(C)c2cccc(C#N)c2)cc(OCc2cccc(-c3ccccc3)c2C)c2c1CCC2 (centres unmarked) [Compound 14, N-(2-(((5-(1-(3-cyanophenyl)ethoxy)-7-((2-methyl-[1,1′-biphenyl]-3-yl)methoxy)-2,3-dihydro-1H-inden-4-yl)methyl)amino)ethyl)acetamide]
20 | < 100 | CC(=O)NC1CCCN(Cc2c(OCc3cccc(C#N)c3)cc(OCc3cccc(-c4ccccc4)c3C)c3c2CCC3)C1 (centres unmarked) [Compound 15, N-(1-((5-((3-cyanobenzyl)oxy)-7-((2-methyl-[1,1′-biphenyl]-3-yl)methoxy)-2,3-dihydro-1H-inden-4-yl)methyl)piperidin-3-yl)acetamide]
21 | > 500 | CC(=O)NCCNCc1ccc(OCc2cccc(-c3ccccc3)c2C)c2c1CCC2 [Compound 16, N-(2-(((7-((2-methyl-[1,1′-biphenyl]-3-yl)methoxy)-2,3-dihydro-1H-inden-4-yl)methyl)amino)ethyl)acetamide]
22 | > 500 | Cc1c(COc2ccc(CN3CC4(COC4)C3)c3c2CCC3)cccc1-c1ccccc1 [Compound 17, 6-((7-((2-methyl-[1,1′-biphenyl]-3-yl)methoxy)-2,3-dihydro-1H-inden-4-yl)methyl)-2-oxa-6-azaspiro[3.3]heptane]
23 | 100 to 500 | Cc1c(COc2ccc(CNC(CO)(CO)CO)c3c2CCC3)cccc1-c1ccccc1 [Compound 18, 2-(hydroxymethyl)-2-(((7-((2-methyl-[1,1′-biphenyl]-3-yl)methoxy)-2,3-dihydro-1H-inden-4-yl)methyl)amino)propane-1,3-diol]
24 | 100 to 500 | Cc1c(COc2ccc(CNC3(C(=O)O)CC3)c3c2CCC3)cccc1-c1ccccc1 [Compound 19, 1-(((7-((2-methyl-[1,1′-biphenyl]-3-yl)methoxy)-2,3-dihydro-1H-inden-4-yl)methyl)amino)cyclopropane-1-carboxylic acid]
25 | 100 to 500 | Cc1c(COc2ccc(CNCC(=O)O)c3c2CCC3)cccc1-c1ccccc1 [Compound 20, ((7-((2-methyl-[1,1′-biphenyl]-3-yl)methoxy)-2,3-dihydro-1H-inden-4-yl)methyl)glycine]
26 | > 500 | Cc1c(COc2ccc(CNCCC(=O)O)c3c2CCC3)cccc1-c1ccccc1 [Compound 21, 3-(((7-((2-methyl-[1,1′-biphenyl]-3-yl)methoxy)-2,3-dihydro-1H-inden-4-yl)methyl)amino)propanoic acid]
